# The source made the active and inactive calls. No cut-off for these calls is given here.
# Key:
# Jurkat [1] = experiment: Induction of mitochondrial respiration in human Jurkat cells assessed as increase in oxygen consumption rate at 1 uM in presence of OXPHOS state by high-resolution fluorespirometry analysis; format: functional, cell-based
# 4T1 [2] = experiment: Induction of ROS production in mouse 4T1 cells assessed as decrease in NAD+ level at 1 uM incubated for 20 mins by fluorescence cell counter analysis; format: functional; parameters: scale not given: the % may be the effect or the level left
# Pyruvate kinase PKM [3] = biological target: T1, Pyruvate kinase PKM (Homo sapiens, UniProt P14618); experiment: Inhibition of N-terminal his8-tagged PKM2 (unknown origin) in presence of FBP by Michaelis-menten analysis
# Target sequence in this assay (P14618 whole entry): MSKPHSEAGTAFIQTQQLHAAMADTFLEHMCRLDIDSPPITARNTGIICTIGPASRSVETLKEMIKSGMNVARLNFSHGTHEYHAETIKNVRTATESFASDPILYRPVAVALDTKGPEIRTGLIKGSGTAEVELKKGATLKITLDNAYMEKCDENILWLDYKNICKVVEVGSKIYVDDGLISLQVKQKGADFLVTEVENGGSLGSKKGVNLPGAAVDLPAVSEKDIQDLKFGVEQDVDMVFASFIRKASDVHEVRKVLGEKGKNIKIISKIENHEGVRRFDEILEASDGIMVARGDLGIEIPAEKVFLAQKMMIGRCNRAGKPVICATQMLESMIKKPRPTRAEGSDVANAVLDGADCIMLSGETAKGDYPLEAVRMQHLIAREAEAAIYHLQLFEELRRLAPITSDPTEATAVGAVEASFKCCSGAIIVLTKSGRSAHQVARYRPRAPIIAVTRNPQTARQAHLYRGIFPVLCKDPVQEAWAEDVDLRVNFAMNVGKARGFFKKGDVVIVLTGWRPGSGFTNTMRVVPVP
# [4] = biological target: Pyruvate kinase PKLR (Homo sapiens) (UniProt P30613); experiment: Inhibition of PKR (unknown origin) at 1 uM relative to control
# Jurkat [5] = experiment: Induction of mitochondrial respiration in human Jurkat cells assessed as increase in oxygen consumption rate at 1 uM in presence of LEAK state by high-resolution fluorespirometry analysis; format: functional, cell-based
# MCF7 [6] = experiment: cells; conditions: Homo sapiens, MCF7, 48 h
# Description: Cytotoxicity against human MCF7 cells assessed as inhibition of cell growth incubated for 48 hrs by MTT assay
# 4T1 [7] = experiment: Induction of mitochondrial respiration in mouse 4T1 cells assessed as increase in oxygen consumption rate at 1 uM in presence of OXPHOS state by high-resolution fluorespirometry analysis; format: functional, cell-based
# HCC1937 [8] = experiment: Downregulation of PKM1 mRNA expression in human HCC1937 cells at 0.25 to 5 uM incubated for 24 hrs by qPCR analysis; format: functional, cell-based; conditions: dose 0.25-5 µM
# H9c2 [9] = experiment: Induction of ROS production in rat H9c2 cells assessed as decrease in NADH level at 1 uM incubated for 20 mins by fluorescence cell counter analysis; format: functional, cell-based
# MCF7 [10] = experiment: Induction of ROS production in human MCF7 cells at 1 uM in presence of pyruvate and malate by high-resolution fluorespirometry analysis; format: functional, cell-based
# H9c2 [11] = experiment: Induction of ROS production in rat H9c2 cells assessed as decrease in NAD+/NADH ratio at 1 uM incubated for 20 mins by fluorescence cell counter analysis; format: functional, cell-based
# HCC1937 [12] = experiment: Induction of mitochondrial respiration in human HCC1937 cells assessed as increase in oxygen consumption rate at 1 uM in presence of OXPHOS state by high-resolution fluorespirometry analysis; format: functional, cell-based
# MCF7 [13] = experiment: Induction of mitochondrial respiration in human MCF7 cells assessed as increase in oxygen consumption rate at 1 uM in presence of OXPHOS state by high-resolution fluorespirometry analysis; format: functional, cell-based
# Jurkat [14] = experiment: Cytotoxicity against human Jurkat cells assessed as inhibition of cell growth incubated for 48 hrs by MTT assay; format: functional, cell-based
# Jurkat [15] = experiment: Induction of ROS production in human Jurkat cells at 1 uM in presence of pyruvate and malate by high-resolution fluorespirometry analysis; format: functional, cell-based
# MCF7 [16] = experiment: Induction of mitochondrial respiration in human MCF7 cells assessed as increase in oxygen consumption rate at 1 uM in presence of LEAK state by high-resolution fluorespirometry analysis; format: functional, cell-based
# HCC1937 [17] = experiment: Induction of ROS production in human HCC1937 cells at 1 uM in presence of pyruvate and malate by high-resolution fluorespirometry analysis; format: functional, cell-based
# Pyruvate kinase PKM [18] = biological target: T1, Pyruvate kinase PKM; experiment: Inhibition of N-terminal his8-tagged PKM2 (unknown origin)
# Target sequence in this assay (P14618 whole entry): as above
# Oryctolagus cuniculus = species: Oryctolagus cuniculus; experiment: Inhibition of rabbit LDH at 1 uM relative to control
# Pyruvate kinase PKM [19] = biological target: T1, Pyruvate kinase PKM; experiment: Inhibition of PKM1 (unknown origin); parameters: concentration or dose not given beside the values; conditions: concentration not given here
# Target sequence in this assay (P14618 2-531 limits assumed): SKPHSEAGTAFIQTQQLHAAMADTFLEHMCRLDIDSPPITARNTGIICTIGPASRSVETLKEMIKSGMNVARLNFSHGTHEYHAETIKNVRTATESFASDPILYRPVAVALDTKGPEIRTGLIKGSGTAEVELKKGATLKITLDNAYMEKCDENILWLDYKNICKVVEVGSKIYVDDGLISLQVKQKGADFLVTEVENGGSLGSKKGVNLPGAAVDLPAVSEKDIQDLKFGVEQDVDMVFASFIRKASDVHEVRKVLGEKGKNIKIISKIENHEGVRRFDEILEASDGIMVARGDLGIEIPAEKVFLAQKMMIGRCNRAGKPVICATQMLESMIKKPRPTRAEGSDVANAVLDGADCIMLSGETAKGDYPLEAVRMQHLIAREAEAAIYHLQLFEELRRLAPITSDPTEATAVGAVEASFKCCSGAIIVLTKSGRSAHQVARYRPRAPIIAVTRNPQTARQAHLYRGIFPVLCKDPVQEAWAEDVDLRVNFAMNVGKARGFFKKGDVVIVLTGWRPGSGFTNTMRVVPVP
# 4T1 [20] = experiment: Induction of ROS production in mouse 4T1 cells assessed as decrease in NAD+/NADH ratio at 1 uM incubated for 20 mins by fluorescence cell counter analysis; format: functional, cell-based
# 4T1 [21] = experiment: Induction of ROS production in mouse 4T1 cells assessed as decrease in NADH level at 1 uM incubated for 20 mins by fluorescence cell counter analysis; format: functional; parameters: scale not given: the % may be the effect or the level left
# HCC1937 [22] = experiment: Cytotoxicity against human HCC1937 cells assessed as inhibition of cell growth incubated for 48 hrs by MTT assay; format: functional, cell-based; conditions: HCC1937, 48 h
# Pyruvate kinase PKM [23] = biological target: T1, Pyruvate kinase PKM; experiment: Inhibition of PKM2 (unknown origin) by ITC analysis
# Target sequence in this assay (P14618 whole entry): as the sequence (P14618 whole entry) above
# [24] = Binding affinity to Sprague-Dawley rat liver Cardiolipin incubated for 10 mins by microplate reader analysis; format: tissue-based
# MDA-MB-231 = experiment: Cytotoxicity against human MDA-MB-231 cells assessed as inhibition of cell growth incubated for 48 hrs by MTT assay; format: functional, cell-based; conditions: MDA-MB-231, 48 h
# 4T1 [25] = experiment: Downregulation of PKM2 mRNA expression in mouse 4T1 cells at 0.25 to 0.5 uM incubated for 24 hrs by qPCR analysis; format: functional, cell-based; conditions: dose 0.25-0.5 µM
# [26] = Downregulation of PKM2 mRNA expression in human HCC1937 cells assessed as fold change at 0.25 uM incubated for 24 hrs by qPCR analysis; format: functional
# 4T1 [27] = experiment: Cytotoxicity against mouse 4T1 cells assessed as inhibition of cell growth incubated for 48 hrs by MTT assay; format: functional, cell-based; conditions: 4T1, 48 h, read-out: IC50
# H9c2 [28] = experiment: Induction of ROS production in rat H9c2 cells assessed as decrease in NAD+ level at 1 uM incubated for 20 mins by fluorescence cell counter analysis; format: functional, cell-based
# HCC1937 [29] = experiment: Induction of mitochondrial respiration in human HCC1937 cells assessed as increase in oxygen consumption rate at 1 uM in presence of LEAK state by high-resolution fluorespirometry analysis; format: functional, cell-based
# [30] = Downregulation of PKM2 mRNA expression in human HCC1937 cells assessed as fold change at 0.5 uM incubated for 24 hrs by qPCR analysis; format: functional
# A549 = experiment: cells; conditions: Homo sapiens, A549, 48 h
# Description: Cytotoxicity against human A549 cells assessed as inhibition of cell growth incubated for 48 hrs by MTT assay
# Pyruvate kinase PKM [31] = biological target: T1, Pyruvate kinase PKM; experiment: Inhibition of PKM2 (unknown origin) assessed as increase in tetramer ratio by analytical size-exclusion chromatography; conditions: dose 5.0 µM
# Target sequence in this assay (P14618 2-531 limits assumed): as the sequence (P14618 2-531 limits assumed) above
# 4T1 [32] = experiment: Induction of mitochondrial respiration in mouse 4T1 cells assessed as increase in oxygen consumption rate at 1 uM in presence of LEAK state by high-resolution fluorespirometry analysis; format: functional, cell-based
# 4T1 [33] = experiment: Induction of ROS production in mouse 4T1 cells at 1 uM in presence of pyruvate and malate by high-resolution fluorespirometry analysis; format: functional, cell-based
# [34] = Cytotoxicity against rat H9c2 cells assessed as inhibition of cell growth incubated for 48 hrs by MTT assay; format: toxicity, cell-based
# Pyruvate kinase PKLR (Homo sapiens), sequence (P30613 whole entry, looked up): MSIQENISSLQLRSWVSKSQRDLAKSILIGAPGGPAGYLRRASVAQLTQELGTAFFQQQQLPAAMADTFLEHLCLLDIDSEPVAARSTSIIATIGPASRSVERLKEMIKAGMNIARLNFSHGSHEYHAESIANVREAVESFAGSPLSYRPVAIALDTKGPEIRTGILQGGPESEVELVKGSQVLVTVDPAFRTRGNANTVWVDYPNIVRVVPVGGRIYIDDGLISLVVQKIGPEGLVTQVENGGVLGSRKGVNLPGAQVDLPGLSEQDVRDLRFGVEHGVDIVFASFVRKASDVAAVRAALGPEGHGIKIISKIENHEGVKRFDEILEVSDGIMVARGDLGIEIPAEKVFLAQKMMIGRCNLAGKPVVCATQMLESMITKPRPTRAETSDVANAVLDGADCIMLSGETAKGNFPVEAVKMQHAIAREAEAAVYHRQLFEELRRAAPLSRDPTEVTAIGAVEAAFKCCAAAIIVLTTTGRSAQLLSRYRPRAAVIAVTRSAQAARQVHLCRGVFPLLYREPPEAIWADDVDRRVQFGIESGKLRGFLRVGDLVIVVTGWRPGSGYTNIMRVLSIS
smiles,measurement,setting,value
COC(=O)c1cc[n+]2[se]c(C3(O)CCCCC3)c(Br)c2c1.[Cl-],Activity,Jurkat [1],Active
same,Activity,4T1 [2],42.8%
same,IC50,Pyruvate kinase PKM [3],0.477 µM
same,inhibition,[4],21%
same,inhibition,[4]; tested as the 2H-labelled form,16%
same,Activity,Jurkat [5],Active
same,IC50,MCF7 [6],1.16 µM
same,Activity,4T1 [7],Active
same,Activity,HCC1937 [8],inactive
same,Activity,H9c2 [9],inactive
same,Activity,MCF7 [10],Active
same,Activity,H9c2 [11],inactive
same,Activity,HCC1937 [12],Active
same,Activity,MCF7 [13],Active
same,IC50,Jurkat [14],0.44 µM
same,Activity,Jurkat [15],Active
same,Activity,MCF7 [16],Active
same,Activity,HCC1937 [17],Active
same,IC50,Pyruvate kinase PKM [18],0.35 µM
same,inhibition,Oryctolagus cuniculus,10%
same,inhibition,Oryctolagus cuniculus; tested as the 2H-labelled form,13%
same,inhibition,Pyruvate kinase PKM [19],13%
same,inhibition,Pyruvate kinase PKM [19]; tested as the 2H-labelled form,10%
same,Activity,4T1 [20],inactive
same,Activity,4T1 [21],57.4%
same,IC50,HCC1937 [22],0.33 µM
same,IC50,Pyruvate kinase PKM [23],0.25 µM
same,EC50,[24],3490 µM
same,IC50,MDA-MB-231,0.51 µM
same,Activity,4T1 [25],Active
same,fold change (FC),[26],4
same,IC50,4T1 [27],0.32 µM
same,Activity,H9c2 [28],inactive
same,Activity,HCC1937 [29],Active
same,fold change (FC),[30],20
same,IC50,A549,1.3 µM
same,inhibition,Pyruvate kinase PKM [31],Dose-Dependent Effect
same,Activity,4T1 [32],Active
same,Activity,4T1 [33],Active
same,IC50 at 48 h,[34],2.46 µM

# Reference: ChEMBL document CHEMBL5620354, “Development of isoselenazolium chlorides as selective pyruvate kinase isoform M2 inhibitors” (Eur J Med Chem, 2023)
